What all share (assay): inhibition of tumour cell growth, NCI panel, 48 h
In test [1] the test system is OVCAR-5.
Test [2] has as its system MDA-N.
Test [3] concerns CAKI-1.
Test [4] deals with DU-145.
For test [5], the system named is MDA-MB-435.
The subject of test [6] is ACHN.
Test [7] has as its system BT-549.
Test [8] concerns NCI-H23.
In test [9] the test system is LOX IMVI.
For test [10], the system named is SR.
In test [11] the test system is SNB-75.
Test [12] has as its system SK-OV-3.
For test [13], the system named is KM12.
Test [14] concerns K562.
Test [15] has as its system Malme-3M.
Test [16] relates to SK-MEL-28.
Test [17] has as its system NCI/ADR-RES.
Test [18] deals with Hs-578T.
Test [19] concerns A498.

SMILES strings stand for the structures.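 Compound exposure: 48 hours, 5 concentrations, 96-well plates. Here, GI50 denotes the concentration required for 50% inhibition of growth.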 Activity calls are given as the source filed them. Rule as the data show it: active = GI50 up to about 1.1 µM and inactive = higher. Bounds are passed on as bounds.

With `CCOC(=O)c1c(-c2ccc(Cl)cc2)c(C#N)c(=S)n(C2OC(COC(C)=O)C(OC(C)=O)C(OC(C)=O)C2OC(C)=O)c1-c1ccccc1` (stereo not given), the GI50 in [1], in test [2], in test [3], in [4], in test [5] and in test [6] was > 100 µM (inactive) throughout. In addition, the GI50 in test [7] was > 100 µM (inactive); in test [8], > 100 µM (inactive); in [9], > 100 µM (inactive); in test [10], > 100 µM (inactive); in test [11] it was 21.6 µM (inactive); in [12] it was > 100 µM (inactive). Further, the GI50 in test [13], in test [14], in test [15], in test [16], in test [17] and in [18] was > 100 µM (inactive) throughout.
For the compound `Brc1ccc(-c2[nH]c3ccccc3c2/C=N\Nc2ccc(-c3nc4ccccc4[nH]3)cc2)cc1`, the GI50 in test [1] is < 0.0448 µM (active); in [2], < 0.01 µM (active); in [3] it was < 0.01 µM (active); in test [4] it was < 0.01 µM (active); in test [5] it was < 0.01 µM (active); in [6], < 0.01 µM (active). Further, the GI50 in test [7] is 2.08 µM (inactive); in test [8], < 0.01 µM (active); in [9], < 0.01 µM (active); in test [10] it was < 0.01 µM (active); in test [12], < 0.01 µM (active); in test [13], < 0.01 µM (active). In addition, the GI50 in test [14], in test [15], in test [17] and in [18] was < 0.01 µM (active) in each case.
Consider `COC(=O)C1=C(C)NC(C)=C(C(=O)OC)C1c1ccc(N=O)cc1`, for which the GI50 in test [1] is 17.5 µM (inactive); in [2], 6.75 µM (inactive); in test [3] it was 8.3 µM (inactive); in test [4], 12.9 µM (inactive); in [5], 16.2 µM (inactive); in test [6] it was 13.8 µM (inactive). For the same compound, the GI50 in test [7] was 8.87 µM (inactive); in test [8], 16.2 µM (inactive); in [9] it was 5.9 µM (inactive); in test [10], 0.776 µM (active); in test [11], 13.4 µM (inactive); in test [12] it was 16.6 µM (inactive). The GI50 in test [13] was 18.5 µM (inactive); in test [14], 1.07 µM (active); in test [15], 11.5 µM (inactive); in test [16] it was 17.1 µM (inactive); in [17] it was 20.8 µM (inactive); in test [18] it was 7.31 µM (inactive).
As to `Nc1ncnc2c1ccn2C/C=C\CO`, the GI50 in test [1], in test [2], in test [3], in test [4], in test [19] and in test [5] was > 100 µM (inactive) throughout. Besides, the GI50 in test [6], in [7], in [8], in [9], in [11] and in test [12] was > 100 µM (inactive) each time. Also, the GI50 in test [13], in test [14], in test [15], in test [16], in test [17] and in test [18] was > 100 µM (inactive) throughout.
